In PMC7567314 (Science (New York, N.Y.), 2020):

Experiments:
[1] = system: untransfected HEK293 cells (adenylyl cyclase); assay: Forskolin cAMP concentration-response with or without Ca2+; format: cell-based, human; settings: 0.5 mM CaCl2
[2] = molecular target: wild-type MC4R stably expressed in HEK293 cells (Homo sapiens, UniProt P32245); format: binding; settings: 10 μM Ca2+; wild-type receptor; against 80 pM 125I-NDP-MSH
Sequence of wild-type MC4R stably expressed in HEK293 cells (P32245 whole entry): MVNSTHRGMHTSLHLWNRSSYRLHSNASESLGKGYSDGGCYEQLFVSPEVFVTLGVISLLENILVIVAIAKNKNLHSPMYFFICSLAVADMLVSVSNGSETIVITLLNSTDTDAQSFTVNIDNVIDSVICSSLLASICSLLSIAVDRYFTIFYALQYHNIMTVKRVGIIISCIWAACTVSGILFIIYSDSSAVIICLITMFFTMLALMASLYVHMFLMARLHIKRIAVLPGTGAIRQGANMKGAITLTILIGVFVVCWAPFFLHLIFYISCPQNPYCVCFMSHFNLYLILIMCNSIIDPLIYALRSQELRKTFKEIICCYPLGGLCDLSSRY

| effect of Ca2+ on Ki [2] | Molecule | Ca2+ dependence of non-receptor-mediated activation of adenylyl cyclase [1] |
| --- | --- | --- |
| – | C=C[C@@]1(C)CC(=O)[C@]2(O)[C@@]3(C)[C@@H](O)CCC(C)(C)[C@@H]3[C@H](O)[C@H](OC(C)=O)[C@@]2(C)O1 [forskolin] | no Ca^2+ dependence |
| only marginally lowered | agouti-related protein (SSRRCVRLHESCLGQQVPCCDPCATCYCRFFNAFCYCRKLGTAMNPCSRT; UniProt O00253 83-132, looked up, fragment) [AgRP] | – |
